Source: patent US10143202B2, “Synergistic blends of antimicrobials useful for controlling microorganisms in industrial processes” (Solenis Technologies, L.P., priority 2014, dated 2018)
Converted amounts (≈) assume the structure as drawn.

Key:
[1] = system: Weisella confusa; conditions: cited from earlier work
[2] = system: fermentation; conditions: cited from earlier work
[3] = system: Lactobacillus plantarum; assay: Minimal Inhibitory Concentration (MIC), two-fold dilution series in 96 well microplate, antimicrobial used alone; format: cell-based; conditions: pH 5, 18-24 hours, complete inhibition of growth
Method: This is the lowest concentration of a substance or substances which can achieve complete inhibition of growth.
In order to determine the Minimal Inhibitory Concentration, a two-fold dilution series of the antimicrobial is constructed with the dilutions being made in growth media. The dilutions are made in a 96 well microplate such that each well has a final volume of 280 μl of media and antimicrobial. […] After the dilution series is constructed the wells receive an inoculum of microbe suspended in growth media such that the final concentration of microbes in the well is ˜5×10^5 cfu/ml. In these examples the test microbe used is Lactobacillus plantarum. The cultures are incubated at an appropriate temperature for 18-24 hours, and the wells scored as positive or negative for growth based on a visual examination for turbid wells.

For Virginiamycin, the “Concentration required to inhibit growth of Weisella confusa” value [1] is given as “over 25 mg/L” and the “Concentration that will suppress fermentation” value [2] is given as “over 2 mg/L”.

In the case of `O=C(O)CC(O)(CC(=O)O)C(=O)O` [Citric Acid, citric acid], the MIC ([3]; Lactiplantibacillus plantarum, read-out: Citric Acid MIC (QC), Used Alone) is reported as 6250 µg/mL (≈ 32.5 mM) and the “Citric Acid MIC (QC), Used Alone” value [3] is reported as 6250 ppm.

For `[O][Cl+][O-]` [ClO2, chlorine dioxide], the “ClO2 MIC (QA), Used Alone” value [3] was 54 ppm.
